# Measured values taken from PMC4250329 (Bioorganic & medicinal chemistry letters, 2014).
# “Also recorded” adds a separate entry of the source. Read-outs that look alike come from different tables or passages of the source.
# How the values were obtained:
# JAK1 = experiment: Western blot of pJAK1/JAK1; assay type: cell-based; details: Western blot analysis
# JAK2 = experiment: Western blot of pJAK2/JAK2; assay type: cell-based; details: Western blot analysis
# [1] = test system: four HNSCC cell lines (CAL33, FADU, 686 LN, OSC19); experiment: Anti-proliferative activity in panel of HNSCC cell lines; assay type: cell-based
# panel of >80 kinases = experiment: Kinase panel; assay type: biochemical; details: data not shown
# [2] = test system: IFNγ-induced activation of the STAT1 pathway; experiment: HCS of IFNγ-induced STAT1 pathway activation; details: for inhibition at 50 µM: read-out: inhibition of IFNγ-induced STAT1 activation
# [3] = test system: IL-6-induced STAT3 tyrosine phosphorylation and nuclear translocation; experiment: High content screen; assay type: cell-based; details: for SI (STAT1/STAT3), selectivity index ratio: Table 3; for selectivity against pSTAT1 / activity (STAT3): summary of Table 3
# [4] = read-out: anti-proliferative activity
smiles,measurement,setting,value
"CCOc1ccc2nc(NC3=NC(C)=CC(C)(C)N3)nc(C)c2c1 [11a, 6-ethoxy-4-methylquinazoline-2-amino-dihydro-trimethylpyrimidine]",effects on pJAK1/JAK1,JAK1,no effects; also recorded: did not show any effects
same,effects on pJAK2/JAK2,JAK2,no effects; also recorded: did not show any effects
same,IC50,[1]; read-out: anti-proliferative activities IC50's,17 to 37 µM
same,activity against a panel of >80 kinases,panel of >80 kinases,did not exhibit any significant activity
same,effect on IFNγ-induced activation of the STAT1 pathway,[2]; at 50 μM,no effect
same,inhibition at 50 µM,[2],< 50%
CC1=CC(C)(C)N=C(Nc2nc(C)c3cc(C)ccc3n2)N1 [11b],improved potency compared to the original hit 11a,"[3]; STAT3, text b9",4 fold
same,potency against STAT3,[3]; summary b20,low-micromolar potency
same,IC50,[1]; [4],1 to 50 µM
same,inhibition at 50 µM,[2],< 50%
Cc1cc(C)c2nc(Nc3nc(C)c(C)c(O)n3)nc(C)c2c1 [19b],"SI (STAT1/STAT3), selectivity index ratio",[3],>7
same,selectivity against pSTAT1,[3],≥ 3 fold
CCOc1ccc2nc(Nc3nc(=O)cc(C)[nH]3)nc(C)c2c1 [19e],activity (STAT3),[3],completely abolished activity
Cc1cc2nc(Nc3nc(=O)c(C)c(C)[nH]3)nc(C)c2cc1C [19n],selectivity against pSTAT1,[3],≥ 3 fold
Cc1[nH]c(Nc2nc(C)c3cc4c(cc3n2)OCO4)nc(=O)c1C [19p],activity (STAT3),[3],completely abolished activity
CCOc1ccc2c(C)nc(NC3=NC(C)=CC(C)(C)N3)nc2c1 [11d],inhibition at 50 µM,[2],< 50%
"CC(C)(C)c1nc2c3ccc(F)cc3c3c(=O)[nH]ccc3c2[nH]1 [compound 6, reference compound]",potency against STAT3,[3],nanomolar potencies
same,potency against STAT1,[2],nanomolar potencies
Cc1nc(Nc2nc(=O)cc(-c3ccccc3)[nH]2)nc2cc3c(cc12)OCO3 [19q],"SI (STAT1/STAT3), selectivity index ratio",[3],>3
CC1=CC(C)(C)N=C(Nc2nc(C)c3cc(C)cc(C)c3n2)N1 [11c],potency against STAT3,[3]; summary b20,low-micromolar potency
same,improvement in STAT3 inhibition,[3]; versus 11a,20 fold
same,IC50,[1]; [4],1 to 50 µM
